Laboratory results as given in patent US11834430B2, “Compounds useful as inhibitors of isoprenylcysteine carboxyl methyltransferase” (AGENCY FOR SCIENCE, TECHNOLOGY AND RESEARCH, priority 2017, dated 2023).
“And” between values parts separate entries of the source, which are not always exact repeats. Identical values can stand only once.

Each compound was assayed against human ICMT (Homo sapiens (Human), UniProt O60725) (assay: ICMT biochemical assay (Methyltransferase-Glo)). Conditions: ICMT membrane extract from Sf-9 cells; 30 min preincubation, 90 min reaction.
human ICMT, sequence (O60725 whole entry): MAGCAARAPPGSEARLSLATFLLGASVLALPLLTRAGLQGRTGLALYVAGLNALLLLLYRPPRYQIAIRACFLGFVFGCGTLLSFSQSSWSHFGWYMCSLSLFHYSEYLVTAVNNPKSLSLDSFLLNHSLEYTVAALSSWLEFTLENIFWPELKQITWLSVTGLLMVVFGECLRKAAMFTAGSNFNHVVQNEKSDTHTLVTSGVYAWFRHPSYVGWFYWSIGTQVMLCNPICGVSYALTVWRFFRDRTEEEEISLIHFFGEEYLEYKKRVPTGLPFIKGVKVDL
Procedure: Recombinant human ICMT was prepared by infection of Sf9 cells with a recombinant baculovirus containing the entire open reading frame of the human ICMT cDNA.
Cells producing ICMT were harvested 66 hours post-infection. The cells are homogenized and resuspended in 5 mM NaHPO4 (pH 7.0), and a cocktail of protease inhibitors. The membrane was pelleted, after removal of nuclei and debris, at 100,000×g for 1 hour. Membranes were resuspended in 5 mM NaHPO4 (pH 7.0) with 5 mM EDTA at 10-12 mg/ml. The suspension was stored at −80° C. in multiple aliquots.
An ICMT enzymatic assay was developed using Promega's Methyltransferase-GloTMreagents. In the assay, ICMT catalyzes the methylation of the N-Acetyl-S-farnesyl-L-cysteine by transferring a methyl group from SAM to the farnesylated cysteine and further converts the SAM to SAH. The methyltransferase activity is measured based on the amount of SAH produced from the reaction through the use of coupling enzymes that convert the SAH to ATP. The MTase-Glo detection solution then catalyzes the formation of light from ATP.
A final concentration of 2.0 μM and 20 μM of SAM and peptide were added and further incubated for 90 minutes at room temperature before adding the MTase Glo and detection reagent. Reaction signals were detected using microplate readers on luminescent mode (Satire Tecan). The IC50 was determined by nonlinear regression, using GraphPad Prism version, 5.03.
`C#Cc1ccc(OCCOc2cccc(-n3ccnc3C)c2)c(F)c1` [Compound 51, 1-(3-(2-(4-ethynyl-2-fluorophenoxy)ethoxy)phenyl)-2-methyl-1H-imidazole] showed an IC50 of 20 nM. With `N#Cc1ccc(OCCOc2cccc(-n3ccnc3C3CC3)c2)c(N)c1` [Compound 52, 3-amino-4-(2-(3-(2-cyclopropyl-1H-imidazol-1-yl)phenoxy)ethoxy)benzonitrile] the IC50 was 3.6 nM. For `Cn1nccc1-c1cccc(OCCOc2ccc(F)cc2C#N)c1` [Compound 54, 5-fluoro-2-(2-(3-(1-methyl-1H-pyrazol-5-yl)phenoxy)ethoxy)benzonitrile], the IC50 was 32 nM. In the case of `Cc1nccn1-c1cccc(OC[C@@H](C)Oc2ccc(C#N)cc2Cl)c1` [Compound 55, (R)-3-chloro-4-((1-(3-(2-methyl-1H-imidazol-1-yl)phenoxy)propan-2-yl)oxy)benzonitrile], the IC50 is reported as 11 nM. Compound `Cc1nccn1-c1cccc(OC[C@H](C)Oc2ccc(C#N)cc2Cl)c1` [Compound 56, (S)-3-chloro-4-((1-(3-(2-methyl-1H-imidazol-1-yl)phenoxy)propan-2-yl)oxy)benzonitrile] has an IC50 of 0.15 nM. `Cn1nccc1-c1cccc(OCCOc2ccc(C#N)cc2)c1` [Compound 57, 4-(2-(3-(1-methyl-1H-pyrazol-5-yl)phenoxy)ethoxy)benzonitrile] was tested, and the IC50 was 9 nM. With `Cc1ccc(OCCOc2cccc(-n3ccnc3C)c2)c(F)c1` [Compound 58, 1-(3-(2-(2-fluoro-4-methylphenoxy)ethoxy)phenyl)-2-methyl-1H-imidazole] the IC50 was 60 nM. With `N#Cc1ccc(OCCOc2cccc(-n3ccnc3C3CC3)c2)cc1` [Compound 62, 4-(2-(3-(2-cyclopropyl-1H-imidazol-1-yl)phenoxy)ethoxy)benzonitrile] the IC50 was 8.5 nM. In the case of `Cc1nccn1-c1cccc(OC(C)C(C)Oc2ccc(C#N)cc2F)c1` (stereo not drawn) [Compound 63, 3-fluoro-4-(3-(3-(2-methyl-1H-imidazol-1-yl)phenoxy)butan-2-yloxy)benzonitrile], the IC50 is reported as 18 nM and 6 nM. With `CC(COc1cccc(-c2ccno2)c1)Oc1ccc(C#N)cc1F` (stereo not drawn) [Compound 64, 3-fluoro-4-((1-(3-(isoxazol-5-yl)phenoxy)propan-2-yl)oxy)benzonitrile] the IC50 was 270 nM and 470 nM. With `C[C@H](COc1cccc(-c2ccno2)c1)Oc1ccc(C#N)cc1F` [Compound 65, (R)-3-fluoro-4-((1-(3-(isoxazol-5-yl)phenoxy)propan-2-yl)oxy)benzonitrile] the IC50 was 4670 nM and 4390 nM. With `C[C@@H](COc1cccc(-c2ccno2)c1)Oc1ccc(C#N)cc1F` [Compound 66, (S)-3-fluoro-4-((1-(3-(isoxazol-5-yl)phenoxy)propan-2-yl)oxy)benzonitrile] the IC50 was 180 nM and 190 nM. With `N#Cc1ccc(OCCOc2cccc(-c3cnoc3)c2)cc1` [Compound 67, 4-(2-(3-(isoxazol-4-yl)phenoxy)ethoxy)benzonitrile] the IC50 was 140 nM and 100 nM. `Cc1cc(C#N)ccc1O[C@H](C)COc1cccc(-n2ccnc2C2CC2)c1` [Compound 68, (R)-4-((1-(3-(2-cyclopropyl-1H-imidazol-1-yl)phenoxy)propan-2-yl)oxy)-3-methylbenzonitrile] was tested, and the IC50 was 1.5 nM and 13 nM. `COc1cc(C#N)ccc1O[C@@H](C)COc1cccc(-n2ccnc2C)c1` [Compound 72, (S)-3-methoxy-4-((1-(3-(2-methyl-1H-imidazol-1-yl)phenoxy)propan-2-yl)oxy)benzonitrile] gave an IC50 of 4.5 nM. Work on `Cc1nccn1-c1cccc(OCCOc2ccc(C#N)nn2)c1` [Compound 73, 6-(2-(3-(2-methyl-1H-imidazol-1-yl)phenoxy)ethoxy)pyridazine-3-carbonitrile] yielded an IC50 of 950 nM. For `Cc1nccn1-c1cccc(OCCOc2ncc(C#N)cc2F)c1` [Compound 74, 5-fluoro-6-(2-(3-(2-methyl-1H-imidazol-1-yl)phenoxy)ethoxy)nicotinonitrile], the IC50 was 65 nM. For `Cn1nccc1-c1cccc(OCCOc2ccc(C#N)cn2)c1` [Compound 75, 6-(2-(3-(1-methyl-1H-pyrazol-5-yl)phenoxy)ethoxy)nicotinonitrile], the IC50 was 60 nM and 62 nM. For `Cc1nccn1-c1cccc(OC[C@H](C)Oc2ccc(C#N)cc2F)c1` [Compound 79, (S)-3-fluoro-4-((1-(3-(2-methyl-1H-imidazol-1-yl)phenoxy)propan-2-yl)oxy)benzonitrile], the IC50 was 31 nM. For `Cn1nccc1-c1cccc(OCCOc2ncc(C#N)cc2F)c1` [Compound 82, 5-fluoro-6-(2-(3-(1-methyl-1H-pyrazol-5-yl)phenoxy)ethoxy)nicotinonitrile], the IC50 was 210 nM and 190 nM. For `N#Cc1cnc(OCCOc2cccc(-n3ccnc3C3CC3)c2)c(F)c1` [Compound 83, 6-(2-(3-(2-cyclopropyl-1H-imidazol-1-yl)phenoxy)ethoxy)-5-fluoronicotinonitrile], the IC50 was 3.7 nM. `N#Cc1ccc(OCCOc2cccc(-c3cnoc3)c2)c(F)c1` [Compound 84, 3-fluoro-4-(2-(3-(isoxazol-4-yl)phenoxy)ethoxy)benzonitrile] showed an IC50 of 28 nM. In the case of `Cc1nccn1-c1cc(OCCOc2ccc(C#N)cc2)ccn1` [Compound 85, 4-(2-((2-(2-methyl-1H-imidazol-1-yl)pyridin-4-yl)oxy)ethoxy)benzonitrile], the IC50 is reported as 15 nM. Compound `Cc1nccn1-c1cccc(OCCOc2ccc(C#N)cc2F)n1` [Compound 86, 3-fluoro-4-(2-((6-(2-methyl-1H-imidazol-1-yl)pyridin-2-yl)oxy)ethoxy)benzonitrile] has an IC50 of 17 nM. `Cc1nccn1-c1cc(OCCOc2ncc(C#N)cc2F)ccc1F` [Compound 87, 5-fluoro-6-(2-(4-fluoro-3-(2-methyl-1H-imidazol-1-yl)phenoxy)ethoxy)nicotinonitrile] showed an IC50 of 33 nM. `N#Cc1ccc(OCCOc2ccnc(-n3ccnc3C3CC3)c2)cc1` [Compound 89, 4-(2-((2-(2-cyclopropyl-1H-imidazol-1-yl)pyridin-4-yl)oxy)ethoxy)benzonitrile] was tested, and the IC50 was 2.8 nM. Work on `N#Cc1cnc(OCCOc2ccnc(-n3ccnc3C3CC3)c2)c(F)c1` [Compound 90, 6-(2-((2-(2-cyclopropyl-1H-imidazol-1-yl)pyridin-4-yl)oxy)ethoxy)-5-fluoronicotinonitrile] yielded an IC50 of 37 nM. `Cc1nccn1-c1cc(OCCOc2ncc(C#N)cc2F)ccn1` [Compound 91, 5-fluoro-6-(2-((2-(2-methyl-1H-imidazol-1-yl)pyridin-4-yl)oxy)ethoxy)nicotinonitrile] showed an IC50 of 120 nM. `Cn1nccc1-c1cncc(OCCOc2ccc(C#N)cc2F)c1` [Compound 92, 3-fluoro-4-(2-((5-(1-methyl-1H-pyrazol-5-yl)pyridin-3-yl)oxy)ethoxy)benzonitrile] was tested, and the IC50 was 300 to 1000 nM.

Same assay, conditions: unit (nM)
Work on `COc1cc(C#N)ccc1O[C@@H](C)COc1cccc(-c2ccnn2C)c1` [Compound 60, (S)-3-methoxy-4-((1-(3-(1-methyl-1H-pyrazol-5-yl)phenoxy)propan-2-yl)oxy)benzonitrile] yielded an IC50 of 0.81 nM. Compound `Cc1cc(C#N)ccc1OC(C)COc1cccc(-n2ccnc2C2CC2)c1` (stereo not drawn) [Compound 61, 4-((1-(3-(2-cyclopropyl-1H-imidazol-1-yl)phenoxy)propan-2-yl)oxy)-3-methylbenzonitrile] has an IC50 of 0.88 nM. `N#Cc1ccc(OCCOc2ccnc(-n3ccnc3C3CC3)c2)c(F)c1` [Compound 76, 4-(2-((2-(2-cyclopropyl-1H-imidazol-1-yl)pyridin-4-yl)oxy)ethoxy)-3-fluorobenzonitrile] showed an IC50 of 0.39 nM. `COc1cc(C#N)ccc1O[C@H](C)COc1cccc(-n2ccnc2C)c1` [Compound 77, (R)-3-methoxy-4-((1-(3-(2-methyl-1H-imidazol-1-yl)phenoxy)propan-2-yl)oxy)benzonitrile] was tested, and the IC50 was 0.7 nM.
